{"source": "PubChem BioAssay (NCI)", "assay_in_all_cases": "NCI-60 cell line screen, 384-well format", "key": {"NCI-H522 lung": {"system": "NCI-H522 lung"}, "SNB-75 CNS": {"system": "SNB-75 CNS"}, "SF-268 CNS": {"system": "SF-268 CNS"}, "IGROV1 ovarian": {"system": "IGROV1 ovarian"}, "UACC-257 melanoma": {"system": "UACC-257 melanoma"}, "TK-10 renal": {"system": "TK-10 renal"}, "SF-295 CNS": {"system": "SF-295 CNS"}, "PC-3 prostate": {"system": "PC-3 prostate"}, "UACC-62 melanoma": {"system": "UACC-62 melanoma"}, "SNB-19 CNS": {"system": "SNB-19 CNS"}, "COLO 205 colon": {"system": "COLO 205 colon"}, "ACHN renal": {"system": "ACHN renal"}, "A498 renal": {"system": "A498 renal"}, "SN12C renal": {"system": "SN12C renal"}, "T-47D breast": {"system": "T-47D breast"}, "MDA-MB-231 breast": {"system": "MDA-MB-231 breast"}, "EKVX NSCLC": {"system": "EKVX NSCLC"}, "NCI/ADR-RES ovarian": {"system": "NCI/ADR-RES ovarian"}, "SK-OV-3 ovarian": {"system": "SK-OV-3 ovarian"}, "MALME-3M melanoma": {"system": "MALME-3M melanoma"}, "HS 578T breast": {"system": "HS 578T breast"}, "SK-MEL-5 melanoma": {"system": "SK-MEL-5 melanoma"}, "SR leukemia": {"system": "SR leukemia"}, "SW-620 colon": {"system": "SW-620 colon"}, "OVCAR-3 ovarian": {"system": "OVCAR-3 ovarian"}, "CCRF-CEM leukemia": {"system": "CCRF-CEM leukemia"}, "CAKI-1 renal": {"system": "CAKI-1 renal"}, "HCT-15 colon": {"system": "HCT-15 colon"}, "786-0 renal": {"system": "786-0 renal"}}, "note": "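GI50 marks 50% less growth. TGI is the concentration that stops growth completely.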", "data": [{"smiles": "C=CC(=O)N1CCC([C@@H]2CCNc3c(C(N)=O)c(-c4ccc(Oc5ccccc5)cc4)nn32)CC1", "values": [{"measurement": "GI50", "setting": "NCI-H522 lung", "result": 3.46, "unit": "µM"}, {"measurement": "TGI", "setting": "NCI-H522 lung", "result": 12.1, "unit": "µM"}, {"measurement": "GI50", "setting": "SNB-75 CNS", "result": 17.4, "unit": "µM"}, {"measurement": "TGI", "setting": "SNB-75 CNS", "result": 50.6, "unit": "µM"}, {"measurement": "GI50", "setting": "SF-268 CNS", "result": 15.4, "unit": "µM"}, {"measurement": "TGI", "setting": "SF-268 CNS", "result": 40.6, "unit": "µM"}, {"measurement": "GI50", "setting": "IGROV1 ovarian", "result": 4.22, "unit": "µM"}, {"measurement": "TGI", "setting": "IGROV1 ovarian", "result": 16.9, "unit": "µM"}, {"measurement": "GI50", "setting": "UACC-257 melanoma", "result": 17.8, "unit": "µM"}, {"measurement": "TGI", "setting": "UACC-257 melanoma", "result": 35.3, "unit": "µM"}, {"measurement": "GI50", "setting": "TK-10 renal", "result": 5.89, "unit": "µM"}, {"measurement": "TGI", "setting": "TK-10 renal", "result": 27.3, "unit": "µM"}, {"measurement": "GI50", "setting": "SF-295 CNS", "result": 28.5, "unit": "µM"}, {"measurement": "TGI", "setting": "SF-295 CNS", "result": "> 80.2", "unit": "µM"}, {"measurement": "GI50", "setting": "PC-3 prostate", "result": 31.6, "unit": "µM"}, {"measurement": "TGI", "setting": "PC-3 prostate", "result": "> 86", "unit": "µM"}, {"measurement": "GI50", "setting": "UACC-62 melanoma", "result": 16.7, "unit": "µM"}, {"measurement": "TGI", "setting": "UACC-62 melanoma", "result": 34, "unit": "µM"}, {"measurement": "GI50", "setting": "SNB-19 CNS", "result": 20, "unit": "µM"}, {"measurement": "TGI", "setting": "SNB-19 CNS", "result": 51, "unit": "µM"}, {"measurement": "GI50", "setting": "COLO 205 colon", "result": 21.7, "unit": "µM"}, {"measurement": "TGI", "setting": "COLO 205 colon", "result": 45.6, "unit": "µM"}, {"measurement": "GI50", "setting": "ACHN renal", "result": 9.75, "unit": "µM"}, {"measurement": "TGI", "setting": "ACHN renal", "result": 44.6, "unit": "µM"}, {"measurement": "GI50", "setting": "A498 renal", "result": 15.1, "unit": "µM"}, {"measurement": "TGI", "setting": "A498 renal", "result": "> 56.3", "unit": "µM"}, {"measurement": "GI50", "setting": "SN12C renal", "result": 17.6, "unit": "µM"}, {"measurement": "TGI", "setting": "SN12C renal", "result": 55, "unit": "µM"}, {"measurement": "GI50", "setting": "T-47D breast", "result": 7.05, "unit": "µM"}, {"measurement": "TGI", "setting": "T-47D breast", "result": "> 77.2", "unit": "µM"}, {"measurement": "GI50", "setting": "MDA-MB-231 breast", "result": 17.4, "unit": "µM"}, {"measurement": "TGI", "setting": "MDA-MB-231 breast", "result": 33.6, "unit": "µM"}, {"measurement": "GI50", "setting": "EKVX NSCLC", "result": 6.77, "unit": "µM"}, {"measurement": "TGI", "setting": "EKVX NSCLC", "result": 31.2, "unit": "µM"}, {"measurement": "GI50", "setting": "NCI/ADR-RES ovarian", "result": 16.9, "unit": "µM"}, {"measurement": "TGI", "setting": "NCI/ADR-RES ovarian", "result": 36.5, "unit": "µM"}, {"measurement": "GI50", "setting": "SK-OV-3 ovarian", "result": 14.2, "unit": "µM"}, {"measurement": "TGI", "setting": "SK-OV-3 ovarian", "result": "> 69.8", "unit": "µM"}, {"measurement": "GI50", "setting": "MALME-3M melanoma", "result": 15.3, "unit": "µM"}, {"measurement": "TGI", "setting": "MALME-3M melanoma", "result": 29.1, "unit": "µM"}, {"measurement": "GI50", "setting": "HS 578T breast", "result": 16, "unit": "µM"}, {"measurement": "TGI", "setting": "HS 578T breast", "result": 30.8, "unit": "µM"}, {"measurement": "GI50", "setting": "SK-MEL-5 melanoma", "result": 15.6, "unit": "µM"}, {"measurement": "TGI", "setting": "SK-MEL-5 melanoma", "result": 30, "unit": "µM"}, {"measurement": "GI50", "setting": "SR leukemia", "result": 14.2, "unit": "µM"}, {"measurement": "TGI", "setting": "SR leukemia", "result": 27.6, "unit": "µM"}, {"measurement": "GI50", "setting": "SW-620 colon", "result": 18.7, "unit": "µM"}, {"measurement": "TGI", "setting": "SW-620 colon", "result": 36.5, "unit": "µM"}, {"measurement": "GI50", "setting": "OVCAR-3 ovarian", "result": 9.13, "unit": "µM"}, {"measurement": "TGI", "setting": "OVCAR-3 ovarian", "result": 25.6, "unit": "µM"}, {"measurement": "GI50", "setting": "CCRF-CEM leukemia", "result": 19.7, "unit": "µM"}, {"measurement": "TGI", "setting": "CCRF-CEM leukemia", "result": 35, "unit": "µM"}, {"measurement": "GI50", "setting": "CAKI-1 renal", "result": 14.7, "unit": "µM"}, {"measurement": "TGI", "setting": "CAKI-1 renal", "result": 47.7, "unit": "µM"}, {"measurement": "GI50", "setting": "HCT-15 colon", "result": 16.8, "unit": "µM"}, {"measurement": "TGI", "setting": "HCT-15 colon", "result": 32.1, "unit": "µM"}, {"measurement": "GI50", "setting": "786-0 renal", "result": 15.4, "unit": "µM"}, {"measurement": "TGI", "setting": "786-0 renal", "result": 37.7, "unit": "µM"}]}]}
